Measured values published in the NIST ThermoML archive (doi:10.1021/je034222z).
± gives the expanded uncertainty stated by the source.

OCCC(F)(F)C(F)(F)C(F)(F)C(F)(F)C(F)(F)C(F)(F)C(F)(F)C(F)(F)F [1-decanol, 3,3,4,4,5,5,6,6,7,7,8,8,9,9,-heptadecafluoro]
vapor or sublimation pressure (294.1 K, Crystal, Transpiration method): 0.003 ± 0.001 kPa | vapor or sublimation pressure (357.15 K, Liquid): 0.708 ± 0.13 kPa | vapor or sublimation pressure (369.15 K, Liquid): 1.465 ± 0.21 kPa | vapor or sublimation pressure (380.15 K, Liquid): 2.774 ± 0.25 kPa | vapor or sublimation pressure (392.15 K, Liquid): 4.91 ± 0.32 kPa | vapor or sublimation pressure (397.15 K, Liquid): 5.1 ± 1 kPa | vapor or sublimation pressure (403.15 K, Liquid): 8.284 ± 0.42 kPa | vapor or sublimation pressure (415.15 K, Liquid): 13.8 ± 0.6 kPa | vapor or sublimation pressure (421.15 K, Liquid): 15.27 ± 3.1 kPa | vapor or sublimation pressure (428.15 K, Liquid): 22.75 ± 0.89 kPa | vapor or sublimation pressure (430.15 K, Liquid): 23.4 ± 4.7 kPa | vapor or sublimation pressure (439.15 K, Liquid): 34.45 ± 1.3 kPa | vapor or sublimation pressure (440.15 K, Liquid): 32 ± 6.4 kPa | vapor or sublimation pressure (445.15 K, Liquid): 35.67 ± 7.1 kPa | vapor or sublimation pressure (452.15 K, Liquid): 51.67 ± 1.8 kPa | vapor or sublimation pressure (463.15 K, Liquid): 72.34 ± 2.5 kPa | vapor or sublimation pressure (468.15 K, Liquid): 75.75 ± 15 kPa | vapor or sublimation pressure (474.15 K, Liquid): 100.61 ± 3.4 kPa | vapor or sublimation pressure (498.15 K, Liquid): 162.1 ± 32 kPa | Normal melting temperature (Crystal, visual observation): 49.0 ± 2 °C
